The values that follow come from paper PMC2989642 (The European journal of neuroscience, 2010).

Experiment [1] addresses α3β4 receptors (in the α5β2 KO) (Mus musculus, UniProt Q8R493+Q8R4G9). As to the kind of experiment: cell-based.
For experiment [2], the target named is α3β2 receptors (in the α5β4 KO) (Mus musculus, UniProt Q8R4G9+Q9ERK7). As to the kind of experiment: cell-based. The format is cell-based.
Chain of α3β2 receptors (in the α5β4 KO) (Q8R4G9 26-499): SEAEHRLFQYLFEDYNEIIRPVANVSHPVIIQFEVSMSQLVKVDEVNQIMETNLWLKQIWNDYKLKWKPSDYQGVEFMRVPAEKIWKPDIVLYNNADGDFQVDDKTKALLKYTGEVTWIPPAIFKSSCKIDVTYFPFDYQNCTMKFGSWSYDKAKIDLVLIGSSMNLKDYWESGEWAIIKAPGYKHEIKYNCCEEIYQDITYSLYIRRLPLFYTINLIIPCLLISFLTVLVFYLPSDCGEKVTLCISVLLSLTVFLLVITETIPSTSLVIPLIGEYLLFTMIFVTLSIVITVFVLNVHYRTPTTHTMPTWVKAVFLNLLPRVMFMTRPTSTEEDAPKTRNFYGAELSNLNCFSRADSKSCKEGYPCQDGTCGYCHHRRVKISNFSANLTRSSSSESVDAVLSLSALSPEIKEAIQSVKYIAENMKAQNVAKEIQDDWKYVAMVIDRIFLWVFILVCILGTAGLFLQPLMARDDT
Chain of α3β2 receptors (in the α5β4 KO) (Q9ERK7 26-501): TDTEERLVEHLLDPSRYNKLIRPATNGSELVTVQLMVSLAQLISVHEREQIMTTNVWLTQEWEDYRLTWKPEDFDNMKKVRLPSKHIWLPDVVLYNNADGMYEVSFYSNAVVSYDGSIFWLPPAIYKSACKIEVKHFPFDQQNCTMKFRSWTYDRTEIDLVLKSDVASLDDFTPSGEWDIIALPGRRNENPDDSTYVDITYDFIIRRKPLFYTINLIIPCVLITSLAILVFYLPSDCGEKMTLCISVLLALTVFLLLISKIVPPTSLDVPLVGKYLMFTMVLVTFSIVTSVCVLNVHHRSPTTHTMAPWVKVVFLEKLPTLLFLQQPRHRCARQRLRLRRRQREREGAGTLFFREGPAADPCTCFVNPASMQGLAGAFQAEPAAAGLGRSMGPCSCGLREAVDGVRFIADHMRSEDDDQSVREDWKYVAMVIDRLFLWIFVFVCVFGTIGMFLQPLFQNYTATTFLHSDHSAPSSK

Chain of α3β4 receptors (in the α5β2 KO) (Q8R4G9 26-499): as the sequence (Q8R4G9 26-499) above
Chain of α3β4 receptors (in the α5β2 KO) (Q8R493 21-495): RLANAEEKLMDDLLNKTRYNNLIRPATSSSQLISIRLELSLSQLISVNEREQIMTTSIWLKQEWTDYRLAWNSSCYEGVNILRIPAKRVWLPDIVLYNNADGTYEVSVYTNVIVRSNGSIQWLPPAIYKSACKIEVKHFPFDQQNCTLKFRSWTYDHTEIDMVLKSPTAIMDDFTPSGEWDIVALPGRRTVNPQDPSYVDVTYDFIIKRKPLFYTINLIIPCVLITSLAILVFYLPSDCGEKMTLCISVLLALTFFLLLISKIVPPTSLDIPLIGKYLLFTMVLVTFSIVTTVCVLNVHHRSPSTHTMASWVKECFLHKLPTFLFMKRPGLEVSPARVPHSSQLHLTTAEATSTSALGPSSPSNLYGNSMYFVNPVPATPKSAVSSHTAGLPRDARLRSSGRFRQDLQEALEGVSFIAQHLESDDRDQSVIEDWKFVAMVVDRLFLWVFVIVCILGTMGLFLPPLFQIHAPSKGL

Turning to α-conotoxin AuIB, the “recovery of the inhibition” value in experiment [1] is “Fast and full recovery”. The “effect on currents induced by 300 μM ACh” value in experiment [2] was “did not affect”.
